Like-named read-outs stand apart in the source and are kept apart here.
How the values were obtained:
[1] = system: Swiss albino, white male mice; test: acute toxicity and synergism of acute toxicity in mice; assay type: in vivo; details: for number of mice dead, with Dimetilan: 48 hours, eight mice
Procedure: To determine the acute toxicity of dimetilan alone, eight dosage levels of Dimetilan, ranging from 4 to 32 mg per kg were applied to eight, Swiss, albino, white, male mice per dosage level. The mice weighed approximately 23 to 27 grams and were five to six weeks old. The Dimetilan was administered intraperitoneally in 0.1 ml of corn oil one hour after the administration of the same dose of corn oil alone.
To determine the acute toxicity of the synergist alone, various synergists were administered intraperitoneally at a dose of 1000 mg/kg to each of a group of eight mice. The number of animals dead at the end of 72 hours is reported in the left hand column of Table XXXXVI.
The synergism of the acute toxicity of Dimetilan by various synergists was determined by tests on Swiss albino, white male mice aged five to six weeks and weighing 23 to 27 grams. The synergists and insecticides were dissolved in corn oil and the drugs were dissolved in distilled water. All compounds were administered intraperitoneally by injection in the lower quadrent of the abdomen. The synergist was administered in 0.1 ml of corn oil one hour prior to administration of the insecticide. Eight mice were treated, per dosage, with each synergist. The mice were watched for a minimum of 6 hours while held in a glass jar with bedding individually after intraperitoneal injection of the test solutions. Lethality was noted, the animals were weighed and transferred in cages, and food and water were supplied. Control mice were given 0.1 ml of corn oil at the time of administration of the synergist to the test mice and 0.1 ml corn oil plus Dimetilan at the time of administration of the insecticide to the test mice.
By the same procedure, the synergism of acute toxicity of GS 13005, Secobarbital and 6-dimethylamino-4,4-diphenyl-3-heptanone [Methadone] was determined.

[2] = system: Rutgers A strain house flies; test: topical application, percent kill after 24 hours, resistant Rutgers A strain; assay type: in vivo, female); details: for percent kill after 24 hours, with GS 13005: GS 13005 1.0 + synergist 5.0 μg/fly; for percent kill after 24 hours, with Mobam: Mobam 0.40 + synergist 2.0 μg/fly; for percent kill after 24 hours, synergist alone: insecticide 0, synergist 5.0 μg/fly
Procedure: (§1) In Table IX, and in the tables following it, the doses of topically applied insecticides and of synergists unless otherwise noted are expressed as micrograms per fly (μg/fly).
(§2) The synergistic effect of O-(2-propynyl) oximes with mobam was determined from topical application tests on susceptible, female, IN/WHO strain house flies and from tests on resistant, female, Rutgers A strain house flies. The synergist and insecticide were dissolved in ACS Grade acetone in such quantities that a 1.0 μ liter volume applied to the thorax of 3-to-5 day old CO2 -anesthetized female adult house flies contained the desired dosage. After being treated, the flies were confined, 10 to a plaster petri dish, with 3-5 dishes/treament, and held for 24-hr. observation of mortality. Reconstituted skim milk on cotton dental wicks was provided during the holding period. The percent kills after 24 hours are shown in Table X for the IN/WHO strain and Table XI for the Rutgers A strain.
(§3) The synergistic effect of benzyl 2-propynyl ethers with mobam was determined from topical application tests on IN/WHO and Rutgers A strain houseflies, following the procedure of Example 5. The percent kills after 24 hours are shown in Table XIV for the IN/WHO strain and in Table XV for the Rutgers A strain.
The synergistic effect with Diazinon of compounds I-B, I-D, I-F, I-G, I-H and I-I, identified in Tables I and Ia, was determined from topical application tests on IN/WHO strain houseflies and on Rutgers A strain houseflies by the procedure of Example 5. The percent kills after 24 hours are shown in Table XXV for the IN/WHO strain and Table XXVI for the Rutgers A strain.
(§4) The synergistic effect with GS 13005 of compounds I-A, I-B, I-D, I-E, I-F, I-G and I-I was determined from topical application tests to IN/WHO strain, Rutgers A strain and polyvalent CH strain houseflies using the procedures of Example 5. The percent kills of the IN/WHO strain flies after 24 hours are shown in Table XXVIII; of the Rutgers A strain, in Table XXIX; and of the polyvalent CH strain, in Table XXX. The doses of insecticide alone to the CH strain files caused 10-40% mortality.
The synergistic effect with Diazinon and GS 13005 of various of the benzyl 2-propynyl ethers identified in Tables II and IIa was determined by topical application tests on IN/WHO strain, and Rutgers A strain and polyvalent, resistant, CH strain houseflies using the procedures of Example 5. The percent kills after 24 hours of IN/WHO strain flies are shown in Table XXXI; of Rutgers A strain flies, in Table XXXII; and of CH strain flies, in Table XXXIII. The doses of insecticide alone to the CH strain flies caused 10-40% mortality.
(§5) The synergistic effect on IN/WHO strain flies and Rutgers A strain flies of compound IV-C with GS 13005 and with Diazinon was determined by the topical application procedure of Example 5. The percent kills of IN/WHO strain flies after 24 hours are shown in Tables XXXVI and XXXVII; the percent kills of Rutgers A strain flies are shown in Tables XXXVIII and XXXIX.

[3] = system: IN/WHO strain house flies; test: topical application, percent kill after 24 hours, susceptible IN/WHO strain; assay type: in vivo, female); details: for percent kill after 24 hours, synergist alone (GS 13005 part of Table XXXI): GS 13005 0, synergist 1 μg/fly; for percent kill after 24 hours, with GS 13005: GS 13005 0.10 + synergist 0.50 μg/fly; for percent kill after 24 hours, with Mobam: Mobam 0.20 + synergist 1 μg/fly; for percent kill after 24 hours, synergist alone: insecticide 0, synergist 1 μg/fly
Procedure: as §1, §2, §3
The effects of varying the insecticide dose and the synergist-insecticide ratio are further illustrated, with synergist compounds II-D, II-E, II-F and Mobam insecticide, in Tables XVI, XVII and XVIII. […]
The effect on IN/WHO flies of synergist compound IV-C, identified in Table IV, with mobam was determined by the topical application procedure of Example 5. […]
as §4
The synergistic effect with Diazinon and GS 13005 of various of the benzyl 2-propynyl ethers identified in Tables II and IIa was determined by topical application tests on IN/WHO strain, and Rutgers A strain and polyvalent, resistant, CH strain houseflies using the procedures of Example 5. The percent kills after 24 hours of IN/WHO strain flies are shown in Table XXXI; of Rutgers A strain flies, in Table XXXII; and of CH strain flies, in Table XXXIII. The doses of insecticide alone to the CH strain flies caused 10-40% mortality. […]
as §5

male mice = test: extension of sleeping time of depressant drugs by synergists; assay type: in vivo, male mice (Swiss albino white); details: for Mean Sleeping Time, Noludar / Relative Sleeping Time, Noludar: Noludar 110 mg/kg; for Relative Sleeping Time, Noludar / Relative Sleeping Time, Secobarbital: treated/control; for Mean Sleeping Time, Secobarbital / Relative Sleeping Time, Secobarbital: Secobarbital 37 mg/kg
Procedure: The selectivity of the synergist compounds of this invention is illustrated by the results of sleeping-time extension tests and of acute toxicity tests on Swiss albino white male mice.
The effect of various synergist compounds on sleeping time of sodium secobarbital [Secobarbital] and of 3,3-diethyl-5-methyl-2,4-dioxypiperidine [Noludar] was determined by administering the drug, with and without synergist, to approximately 38-day old male mice weighing from 25 to 30 grams. Synergists were administered in each of two doses, 74.0 mg/kg (dilution being 2.0 mg/0.1 ml corn oil), and 110.0 mg/kg (dilution 3.0 mg/0.1 ml oil). Secobarbital was administered at a dose of 37.0 mg/kg (dilution 1.0 mg/0.1 ml water). Noludar was administered at a dose of 110.0 mg/kg (dilution 3.0 mg/0.1 ml water). The synergist was administered one hour prior to administration of the Secobarbital or Noludar. Secobarbital and Noludar sleeping times were obtained for both the control (drug only) and the treated (synergist plus drug) mice by noting the time lapse between the administration of the drug and the recovery of the righting reflex, i.e. when the animal regains conciousness and can walk up an inclined wooden tray with coordination. The relative sleeping time (R.S.) was noted. The R.S. is the extended sleeping time in the treated mice (synergist plus drug) divided by the sleeping time in the control mice (drug only). The mean sleeping time for the treated mice and the R.S. are shown on Table XXXXIV for various synergist compounds.

[4] = system: Wilson strain house flies; assay type: in vivo, Wilson strain (susceptible); details: for Contact Synergistic Ratio, Pyrolan: LC50 pyrolan alone / LC50 with synergist
Procedure: The required solutions of the insecticide and of the synergist compound were prepared in acetone at a concentration of 1 milligram per milliliter. One-pint wide mouth glass jars were coated with the appropriate insecticide-synergist combination by rolling the jars containing aliquots of the appropriate solutions diluted to three milliliters with acetone to deposit, by evaporation, a film of the test materials. The flies were transferred under carbon dioxide anesthesia and held in the jar at room temperature. Perforated aluminum foil was used to cover the jars and to hold cotton saturated with 10% sugar solution. Counts were made at intervals, but the recorded mortality was based on 24-hour kill, rather than knockdown. All prostrate non-moving flies were considered dead. A determination was then made of the contact synergistic ratio [SR], which is the ratio of the LC50 of insecticide alone to the LC50 of the insecticide when applied together with the synergist. The LC50 of the insecticide was estimated from a log-probit plot of percent kill versus dosage. […] The LC50 of the combination of insecticide and synergist was determined at a synergist to insecticide parts by weight ratio of five to one.

[5] = Dimetilan 8 + synergist 80 mg/kg i.p.
[6] = Dimetilan 8 + synergist 240 mg/kg i.p.
[7] = synergist 110 mg/kg one hour prior
[8] = synergist 74 mg/kg one hour prior
[9] = synergist to insecticide 5:1 by weight

Row | Structure (SMILES) | number of mice dead, with Dimetilan [1, 5] | number of mice dead, with Dimetilan [1, 6] | percent kill after 24 hours, with GS 13005 [2] | percent kill after 24 hours, with Mobam [2] | percent kill after 24 hours, synergist alone [2] | percent kill after 24 hours, synergist alone (GS 13005 part of Table XXXI) [3] | percent kill after 24 hours, with GS 13005 [3] | percent kill after 24 hours, with Mobam [3] | percent kill after 24 hours, synergist alone [3] | Mean Sleeping Time, Noludar (male mice; [7]) | Relative Sleeping Time, Noludar (male mice; synergist 110 mg/kg) | Mean Sleeping Time, Secobarbital (male mice; [8]) | Relative Sleeping Time, Secobarbital (male mice; synergist 74 mg/kg) | Mean Sleeping Time, Secobarbital (male mice; [7]) | Relative Sleeping Time, Secobarbital (male mice; synergist 110 mg/kg) | Contact Synergistic Ratio, Pyrolan [4, 9] | other results
1 | C#CCOCc1cccc(Cl)c1[N+](=O)[O-] [II-I] | 0 | 3 | 83% | 37% | 3% | 7% | 99% | 97% | 7% | 56 min | 1.8 | 31 min | 1.2 | 32 min | 1.3 | – | –
2 | C#CCOCc1ccc2c(c1)OCO2 [II-G] | – | – | – | – | – | – | – | – | – | – | – | – | – | – | – | 15 | Contact Synergistic Ratio, Carbaryl ([4]; LC50 carbaryl alone / LC50 with synergist, synergist to insecticide 5:1 by weight): 100
3 | C#CCOCc1ccc(Cl)c([N+](=O)[O-])c1 [II-M] | 0 | 3 | 63% | – | 0% | 10% | 79% | 90% | 10% | 47 min | 2.1 | 29 min | 1.0 | 47 min | 2 | – | –
4 | C#CCOC(c1cccc2ccccc12)C(C)[N+](=O)[O-] (stereo not drawn) [IV-B, 2-propynyl 1-naphthyl-2-nitropropyl ether] | – | – | – | – | – | – | – | – | – | – | – | – | – | – | – | 10 | Contact Synergistic Ratio, Carbaryl ([4]; in vivo): 50
5 | C#CCOCc1ccc(Cl)cc1[N+](=O)[O-] [II-J] | 0 | 4 | 100% | 70% | 0% | 13% | 99% | 100% | 13% | 70 min | 2.2 | 27 min | 1.0 | 30 min | 1.4 | – | number of mice dead, with GS 13005 ([1]; GS 13005 71 + synergist 213 mg/kg): 6; number of mice dead, with Methadone ([1]; Methadone 32 + synergist 215 mg/kg): 3; number of mice dead, with Secobarbital ([1]; Secobarbital 90 + synergist 215 mg/kg): 0
6 | C#CCOCc1ccc([N+](=O)[O-])c(Cl)c1 [II-O] | 0 | 2 | 47% | – | 3% | 10% | 90% | 60% | 10% | 52 min | 2.4 | – | – | 26 min | 1.1 | – | –
